The source of these data is US20140194531A1, “HYDROXYTYROSOL BENEFITS MITOCHONDRIA” (DSM IP Assets B.V., priority 2008, published 2014).

One assay has as its system PGC-1α. Put plainly: PGC-1α protein level in adipocytes (Western blot). It is filed as cell-based, murine. To be noted: 3T3-L1 adipocytes, 1.0 μM, maximum, p<0.05 vs. control. On the procedure:
Murine 3T3-L1 pre-adipocytes (American Type Culture Collection) were cultured in Dulbecco's Modified Eagle's Medium (DMEM) supplemented with 10% fetal bovine serum and allowed to reach confluence. Differentiation of pre-adipocytes was initiated with 1 μM insulin, 0.25 μM dexamethasone and 0.5 mM 3-isobutyl-1-methylxanthine in DMEM, supplemented with 10% fetal bovine serum. After 48 h, the culture medium was replaced with DMEM supplemented with 10% fetal bovine serum and 1 μM insulin. The culture medium was changed every other day with DMEM containing 10% fetal bovine serum. […] After treatment, cells were washed twice with ice-cold PBS, lysed in sample buffer (62.5 mM Tris-Cl pH 6.8, 2% SDS, 5 mM DTT) at room temperature and vortexed. Cell lysates were then boiled for 5 minutes and cleared by centrifugation (13,000 rpm, 10 minutes at 4° C.). Protein concentration was determined using the Bio-Rad DC protein assay. The soluble lysates (10 μg per lane) were subjected to 10% SDS-PAGE, proteins were then transferred to nitrocellulose membranes and blocked with 5% non-fat milk/TBST for 1 h at room temperature. […] Western blots were developed using ECL (Roche Manheim, Germany) and quantified by scanning densitometry.

Assay [1] deals with mitochondrial electron transport complex I. Put plainly: Mitochondrial complex I protein expression in adipocytes (Western blot). It is filed as cell-based, murine. To be noted: 3T3-L1 adipocytes, 48 hrs. On the procedure: Murine 3T3-L1 pre-adipocytes (American Type Culture Collection) were cultured in Dulbecco's Modified Eagle's Medium (DMEM) supplemented with 10% fetal bovine serum and allowed to reach confluence. Differentiation of pre-adipocytes was initiated with 1 μM insulin, 0.25 μM dexamethasone and 0.5 mM 3-isobutyl-1-methylxanthine in DMEM, supplemented with 10% fetal bovine serum. After 48 h, the culture medium was replaced with DMEM supplemented with 10% fetal bovine serum and 1 μM insulin. The culture medium was changed every other day with DMEM containing 10% fetal bovine serum. […] After treatment, cells were washed twice with ice-cold PBS, lysed in sample buffer (62.5 mM Tris-Cl pH 6.8, 2% SDS, 5 mM DTT) at room temperature and vortexed. Cell lysates were then boiled for 5 minutes and cleared by centrifugation (13,000 rpm, 10 minutes at 4° C.). Protein concentration was determined using the Bio-Rad DC protein assay. The soluble lysates (10 μg per lane) were subjected to 10% SDS-PAGE, proteins were then transferred to nitrocellulose membranes and blocked with 5% non-fat milk/TBST for 1 h at room temperature. Membranes were incubated with primary antibodies directed against PPAR-y (1:1000), PGC-1α (1:1000), α-tubulin (1:10 000), Complex I (1:2000), Complex II (1:2000), Complex III (1:2000) and Complex V (1:2000) in 5% milk/TBST at 4° C. overnight. After washing membranes with TBST three times, membranes were incubated with horseradish peroxidase-conjugated secondary antibody for 1 h at room temperature. Western blots were developed using ECL (Roche Manheim, Germany) and quantified by scanning densitometry.

The next assay concerns mice (C57BL/6NCrl). Put plainly: Maximal running performance on a treadmill (endurance). The format is in vivo. The conditions noted are these: olive extract containing 50% hydroxytyrosol, 50, 150 or 300 mg/kg body weight per day by gavage, 3 weeks. From the text: The purpose of the study was to determine the effect of hydroxytyrosol on maximal running performance on a treadmill.
In short, forty mice (C57BL/6NCrl; 8 wks old) were purchased from Charles River (Sulzfeld, Germany) and housed individually with free access to water and feed, with an alternating 12-hour light-dark cycle. The animals were fed a standard rodent diet (Ssniff R/M-H, Ext. n° V1536, Ssniff Ltd., Soest, Germany). After 2 weeks of adaptation to the diet the mice were randomized according to body weight into four experimental groups of 10 animals. The four groups were treated orally every morning for 3 weeks with either water (control group) or with an olive extract diluted to 0.2 ml with water and containing 50% hydroxytyrosol at doses of 50, 150, or 300 mg/kg body weight per day. There was no difference in feed consumption over the whole experiment. After 3 weeks of treatment the maximal running distance on a treadmill was measured. Statistical significance of the mean differences between dietary groups was tested by one-way analysis of variance (ANOVA). If significant differences were found, the Dunnett's test for multiple comparison was used to compare each group to the control group. P values less than 0.05 were considered significant.

On to `OCCc1ccc(O)c(O)c1` [hydroxytyrosol, 3,4-dihydroxyphenylethanol], for which the “PGC-1α protein expression (PGC-1α:α-tubulin ratio, vs. control)” value with PGC-1α turned out to be 205±52%. Besides, the “mitochondrial electron transport complex I protein (vs. control)” value in assay [1] (0.1 μM, p<0.05) was 131±16%; in assay [1] (1.0 μM, p<0.01), 163±31%; in assay [1] (10.0 μM, p<0.05), 138±21%. Further, the increase of endurance result with mice (C57BL/6NCrl) is recorded as “up to 50%”.
